The source of these data is patent US6469028B1, “Synthesis and use of retinoid compounds having negative hormone and/or anatgonist activities” (Allergan, Inc., priority 1995, dated 2002).

In assay [1] the test system is RAR-γ-VP-16. Description: Example 12: assay for retinoid negative hormones, CV-1 cells. Particulars: 10^−9 to 10^−6 M, 18 hours, no agonist. The assay is classed as cell-based.
Assay [2] deals with T1, RARα (Homo sapiens, UniProt P10276).
T1 sequence (P10276 1-462): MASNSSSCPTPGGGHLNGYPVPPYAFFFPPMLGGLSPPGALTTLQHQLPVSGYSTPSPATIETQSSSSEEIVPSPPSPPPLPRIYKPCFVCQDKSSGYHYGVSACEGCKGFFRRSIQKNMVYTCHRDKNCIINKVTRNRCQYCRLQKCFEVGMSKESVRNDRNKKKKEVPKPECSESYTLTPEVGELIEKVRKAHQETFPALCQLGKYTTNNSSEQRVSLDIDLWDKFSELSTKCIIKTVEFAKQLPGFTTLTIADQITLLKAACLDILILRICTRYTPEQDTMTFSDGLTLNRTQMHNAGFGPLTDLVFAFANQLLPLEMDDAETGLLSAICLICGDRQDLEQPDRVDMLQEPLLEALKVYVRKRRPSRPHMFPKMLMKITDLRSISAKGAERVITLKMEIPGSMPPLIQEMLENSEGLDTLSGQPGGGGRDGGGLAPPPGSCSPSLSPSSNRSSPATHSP
Description: Ligand binding assay. Details: expressed in transfected cells; host or cells: CV1 cells. Particulars: read-out: Kd (nanomolar) RARα.

The target of assay [3] is T2, RARγ (Homo sapiens, UniProt P13631).
T2 sequence (P13631 1-454): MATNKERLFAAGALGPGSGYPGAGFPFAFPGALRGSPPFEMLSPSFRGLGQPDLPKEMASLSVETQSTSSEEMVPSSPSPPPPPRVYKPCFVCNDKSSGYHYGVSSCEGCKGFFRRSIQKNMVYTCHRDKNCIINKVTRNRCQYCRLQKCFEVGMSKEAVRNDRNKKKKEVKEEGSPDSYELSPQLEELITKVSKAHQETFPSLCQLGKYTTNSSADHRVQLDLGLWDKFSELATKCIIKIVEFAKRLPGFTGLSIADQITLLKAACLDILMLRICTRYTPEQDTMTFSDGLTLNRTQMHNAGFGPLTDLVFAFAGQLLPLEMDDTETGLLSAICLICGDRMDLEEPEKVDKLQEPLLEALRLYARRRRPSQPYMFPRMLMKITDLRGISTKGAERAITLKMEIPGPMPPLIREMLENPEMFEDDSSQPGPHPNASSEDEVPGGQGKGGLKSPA
Description: [3H]-ATRA displacement assay, baculovirus expressed receptor. The assay is classed as binding. More on the design: made in house; host or cells: baculovirus expression system.

The test system of assay [4] is TPA-induced Str-AP1-CAT expression. Description: Example 13: anti-AP-1 activity, Str-AP1-CAT and pRS-hRARα in HeLa cells. Particulars: AGN 193109 alone, 10^−10 to 10^−8 M. It is filed as cell-based.
The test system of assay [5] is CaSki cell tumors. Description: Example 22: CaSki cell tumor growth in nude mice. It is filed as in vivo. Particulars: 20 μMol/kg AGN 193109 in corn oil daily, intragastric. How it is done: 1×10^6 CaSki cells are injected into each of a panel of nude mice. Tumor formation is assessed using techniques that will be familiar to one having ordinary skill in the art. After injection, mice are randomly divided into control and test groups. The control group receives a placebo. The test group is administered with AGN 193109. Animals administered with the placebo receive intragastric intubation of corn oil. The test animals receive 20 μMol/kg AGN 193109 in corn oil daily for the period of the treatment. Tumor volume is measured in […] using graduated calipers. Tumor volume is plotted as function of time.

Assay [6] deals with ER-RXR-α. As to the kind of experiment: Example 11: ER-RXR-α alone, ERE-tk-Luc, CV-1 cells.
Where [7] appears, read: Table 12, relative affinity, competition of 3H-ATRA binding, Cheng-Prussof equation.

SMILES strings stand for the structures.

Take `CC1(C)CC=C(c2ccc(C(F)(F)F)cc2)c2cc(C#Cc3ccc(C(=O)O)cc3)ccc21` [Compound 23, 4-[(5,6-Dihydro-5,5-dimethyl-8-(4-trifluoromethylphenyl)-2-naphthalenyl)ethynyl]benzoic acid]: the “RAR-γ-VP-16 constitutive activity (negative hormone activity)” value in assay [1] is “dose dependent repression of RAR-γ-VP-16 constitutive activity”. Moreover, the Kd in assay [2] was determined as 32 nM; in assay [3] (setting [7]) it was 25 nM.

`Cc1ccc(C2=CCC(C)(C)c3ccc(C#Cc4ccc(C(=O)O)cc4)cc32)cc1` [Compound 60, 4-[(5,6-dihydro-5,5-dimethyl-8-(4-methylphenyl)-2-naphthalenyl)ethynyl]benzoic acid]: the “RAR-γ-VP-16 constitutive activity (negative hormone activity)” value in assay [1] is “dose dependent repression of RAR-γ-VP-16 constitutive activity”. Moreover, the “inhibition of AP-1 mediated reporter activity” value in assay [4] is listed as “did not substantially inhibit”. Further, the tumor growth rate result in assay [5] is given as “tumors which are significantly reduced in their growth rate”. Also, in assay [6] (cells transfected only with ER-RXR-α, AGN 193109 as high as 10^−6 M), the luciferase expression levels entry was “approximately 8,000 rlu”. Besides, the luciferase activity result in assay [6] (reporter and chimeric receptor without RAR-γ-VP-16) is “did not exhibit any effect on luciferase activity”. Moreover, the dissociation constant Kd stood at 1.5 nM in assay [2], 3 nM in assay [3] (Table 11) and 6 nM in assay [3] (setting [7]).
